Experimental data: PMC10447463, “Data-mining unveils structure–property–activity correlation of viral infectivity enhancing self-assembling peptides” (Nature Communications, 2023)
Like-named read-outs stand apart in the source and are kept apart here.

Experiments:
[1] = assay type: physicochemical; parameters: key to Fibril / Fibril Formation / TEM 2cat / Fibril: 1 = fibrils present; 0 non-fibrillar structures; details: for Fibril / Fibril Formation: 1 mg/mL, uranyl acetate stain, qualitative
[2] = β-sheet content by ATR-FT-IR; assay type: physicochemical; details: for b -sheet / %: Fig. S7 panel A, β-sheet content by ATR-FT-IR
In short: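 Fluorescamine labelling (20 min RT, λex 365/λem 470 nm) of 3 kDa-MWCO filtrate and unfiltered fibril samples, redissolved in DMSO, gave conversion rate as 100 minus the percentage filtrate/original intensity, in triplicate. Secondary structure was quantified by ATR FT-IR on lyophilized 1 mg/mL fibrils, 64 scans.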

[3] = Zeta-potential measurement; assay type: physicochemical
In short: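 Readout: zeta potential (mV) derived by Smoluchowski from measured electrophoretic mobility. Preformed aggregates (1 mg/mL peptide, PBS pH 7.4, RT for 1 d) were diluted into dilute KCl electrolyte (1 mM) shortly before analysis.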

[4] = FigS12 panel A, fibril category by TEM
[5] = TEM, 1 = fibrils present, 0 = non-fibrillar
[6] = TEM, 1 = fibrils present, 0 = non-fibrillar structures
[7] = zeta-potential of peptide, source data of Figure 2C
[8] = zeta-potential of the peptide assemblies, mean, Figure 3A source data
[9] = Fig S10 panel D, fibril category by TEM
[10] = category: fibrils present or non-fibrillar
[11] = zeta potential of peptide assemblies

Substance	TEM 2cat ([1]; Fig S10 panel D)	TEM 2cat [1, 4]	Fibril ([1]; FigS12 panel B, TEM)	Fibril / Fibril Formation ([1]; TEM)	Fibril [1, 5]	Fibril [1, 6]	b -sheet / % [2]	Zeta-Pot. [3]	Zeta-Potential / mV [3, 7]	Zeta-Potential / mV [3, 8]	TEM 2cat [1, 9]	TEM 2cat [1, 10]	Fibril ([1]; Fig S10 panel E)	Zeta-Pot. [3, 11]	FTIR ß-sheet content [2]
QCKFKQFF	1	1	1	1	1	1	32.34%	4.94	3.089 mV	4.94 mV	–	–	–	–	–
KIKIQIW	–	–	–	1	1	1	49.1721%	12.5	11.255 mV	12.5 mV	1	1	–	–	–
CKFKQFF	0	0	0	0	0	0	45.4057%	11.56	8.055 mV	11.56 mV	–	–	0	–	–
CSISIQI	–	1	1	1	1	1	58.57%	–	-26.07 mV	-25.93 mV	1	–	1	-25.93	–
RGDCKIKIQINM	–	–	–	1	1	1	43%	–	12.35 mV	11.3 mV	1	1	–	11.3	–
CEIEIQINMWQ	–	–	–	1	1	1	49.9%	–	-26.07 mV	-25.8 mV	1	1	1	-25.8	–
HHHHKAKAKAKAYYYY	–	0	0	0	0	0	44.29%	–	4.787 mV	7.03 mV	0	–	–	7.03	–
KIKIQIC	–	–	–	1	1	1	52.93%	–	19.97 mV	19.93 mV	1	1	1	19.93	52.93%
KFKFQFNM	1	–	–	1	1	1	40.31%	13.9	18.4 mV	13.9 mV	–	1	1	–	–
